Test results taken from patent US20030073218A1, “High affinity inhibitors for target validation and uses thereof” (Princeton University, priority 1999, published 2003).
Each block holds one compound with its values, some of them ahead of it.

What was measured:
[1] = test system: protein tyrosine kinase in murine lymphocyte cell lysate (CF); test: Screening of ATP analogs as kinase substrates in murine lymphocyte lysate (anti-phosphotyrosine immunoblot); format: biochemical; settings: 100 uM nucleotide triphosphate, 37° C., 5 min
Procedure: Screening of Nucleotide Analogs: To identify compounds that would not be accepted as substrates by any existing cellular kinase (53), a panel of synthetic A*TP analogs were screened in a murine lymphocyte lysate (CF) rich in protein tyrosine kinase (13). The assays were performed using spleenocytes (8-30 week old male and female C57/B6 mice from the Princeton University Animal Facility) which were isolated and washed in RPMI-1640 medium containing 5% Bovine Calf Serum (BCS), 1% Hepes and DNAseI (1 μg/ml). Red cells were lysed at 4° C. by treatment with 17 mM tris ammonium chloride pH 7.2. The cells were hypotonically lysed on ice for 10 min. In 1 mM Hepes pH 7.4, 5 mM MgCl2, leupeptin (10 μg/ml), aprotinin (10 μg/ml) and 100 uM PMSF according to the method of Fukazawa et. al. (51). After vortexing and centrifuigation at 500 xg, the supernatant was collected. Cells were stored at 4° C. for 20 min. To attenuate the basal protein phosphorylation level, after which the buffer was adjusted to 20 mM Hepes pH 7.4, 10 mM MgCl2 and 1 mM NaF. Sodium vanadate (100 uM) was then added to inhibit the activity of phosphotyrosine phosphatases.
Each nucleotide triphosphate was added to a final concentration of 100 uM to 5×10^6 cell equivalents and incubated at 37° C. for 5 min. after which 4X Laemmli gel loading buffer was added to the cell lysate to quench the reaction. Proteins were separated by 12.5% SDS-PAGE and transferred to Protran BA85 (Schleicher-Schuell). The blot was probed with the anti-phosphotyrosine monoclonal antibody 4G10 (Upstate Biotechnology) and the bound antibody was detected via enhanced chemiluminescence (cat. 34080, Pierce) following treatment with HRP- coupled goat-anti-mouse antibody (VWR cat. 7101332) according to the manufacturer's instructions.
The cell lysate used includes the protein tyrosine kinase Src, Fyn, Lck, Lyn, Yes, Fgr, Hck, Zap, Syk, Btk, Blk, and other protein tyrosine kinase present in B and T lymphocytes, macrophages, and follicular dendritic cells (13). Molecular size standards (in kilodaltons) are indicated.

WT Fyn = target: T1, WT Fyn (Homo sapiens, UniProt P06241); test: In Vitro Kinase Inhibition Assay; format: biochemical; design: in vitro inhibition of Fyn: dose or concentration left out as unconfirmed; settings: for IC50: Table 3, wild type
T1 construct: GST (N); made in house; host or cells: E. coli DH5a, pGEX-KT
T1 sequence (P06241 1-534 isoform P06241-2): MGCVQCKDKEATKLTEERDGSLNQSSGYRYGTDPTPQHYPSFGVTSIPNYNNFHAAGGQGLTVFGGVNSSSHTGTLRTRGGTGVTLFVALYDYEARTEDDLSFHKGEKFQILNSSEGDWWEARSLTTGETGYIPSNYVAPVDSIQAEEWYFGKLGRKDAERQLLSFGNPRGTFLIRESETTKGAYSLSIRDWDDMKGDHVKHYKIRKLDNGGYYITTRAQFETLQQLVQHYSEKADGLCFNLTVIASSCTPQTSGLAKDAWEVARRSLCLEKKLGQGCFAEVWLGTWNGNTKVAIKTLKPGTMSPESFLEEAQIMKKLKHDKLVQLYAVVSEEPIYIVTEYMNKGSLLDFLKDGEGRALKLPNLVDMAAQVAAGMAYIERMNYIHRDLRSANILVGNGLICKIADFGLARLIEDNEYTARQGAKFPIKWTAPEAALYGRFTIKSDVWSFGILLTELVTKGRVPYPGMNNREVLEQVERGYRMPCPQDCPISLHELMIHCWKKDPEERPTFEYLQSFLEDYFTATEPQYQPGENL

[2] = test system: B cell receptor (BCR) mediated phosphorylation cascade in murine B cells; test: Murine B Cell Assay (phosphotyrosine blot after anti-IgM stimulation); format: cell-based; design: dose or concentration left out as unconfirmed; settings: 30 minutes, anti-IgM cross linked murine B cells
Procedure: Murine B Cell Assay: Splenic lymphocytes were isolated from 6-20 week old Balb/c or C57/B6 mice. The cells were washed out of the spleen into RPMI media containing 1 mg/mL DNase in and the red blood cells were lysed in 17 mM tris-ammonium chloride, pH 7.2, Approximately 4×10^6 cells were incubated at 37° C. for 30 minutes with […] of 3 g or 2 in 1.1% DMSO. B cell stimulation was initiated by the addition of 2 mg of goat anti-mouse IgM (Jackson Immuno Research, cat# 115-005-075) and subsequent incubation for 5 minutes at 37(C. The cells were isolated by centrifugation (13,000 rpm, 2 min) and lysed (lysis buffer: 1% Triton X-100, 50 mM tris pH 7.4, 2 mM EDTA, 150 mM NaCl, […] PMSF, 2 mM sodium orthovanadate, 10 mg/mL leupeptin, 10 mg/mL apoprotin). The cellular debris was then pelleted at 13,000 rpm for 15 min. Cellular proteins were separated by 10% polyacrylamide gel electrophoresis and transferred to a nitrocellulose membrane by Western blotting. Phosphotyrosine containing proteins were visualized by immunoblotting with anti-phosphotyrosine antibody (Upstate Biotechnology, Inc.).

GST-XD4(V323A, I338A) = settings: 100 μM analog, 10 μM [γ-32P] ATP
I338G v-Src = target: T2, I338G v-Src (Rous sarcoma virus subgroup A, UniProt P00524, DEL77-225/I338G); test: biochemical; format: biochemical
T2 construct: screened against the catalytic domain of the target kinase, I338G v-Src; made in house; host or cells: E. coli DH5a, pGEX-KT

WT v-Src = target: T3, WT v-Src (Rous sarcoma virus subgroup A, UniProt P00524, DEL77-225); test: biochemical; format: biochemical; design: in vitro inhibition of WT v-Src: dose or concentration left out as unconfirmed
T3 construct: mutant of the v-Src catalytic domain, (the XD4 fragment) were made as glutathione S-transferase (GST) fusion proteins; made in house; host or cells: E. coli (DH5a), pGEX-KT

Compound: CCONc1ncnc2c1ncn2[C@@H]1O[C@H](COP(=O)(O)OP(=O)(O)OP(=O)(O)O)[C@@H](O)[C@H]1O [ATP analog 2, N^6(ethoxy)ATP]
ability to serve as cellular protein tyrosine kinase substrate (level of protein tyrosine phosphorylation) [1]: some ability to serve as cellular protein tyrosine kinase substrates

Compound: CC(=O)Nc1ncnc2c1ncn2[C@@H]1O[C@H](COP(=O)(O)OP(=O)(O)OP(=O)(O)O)[C@@H](O)[C@H]1O [ATP analog 3, N^6(acetyl)ATP]
ability to serve as cellular protein tyrosine kinase substrate (level of protein tyrosine phosphorylation) [1]: some ability to serve as cellular protein tyrosine kinase substrates

Compound: O=P(O)(O)OP(=O)(O)OP(=O)(O)OC[C@H]1O[C@@H](n2cnc3c(NOCc4ccccc4)ncnc32)[C@H](O)[C@@H]1O [ATP analog 6, N^6-(benxyloxy)ATP]
ability to serve as cellular protein tyrosine kinase substrate (level of protein tyrosine phosphorylation) [1]: little or no protein phosphorylation

inhibition of WT Fyn (in words) (WT Fyn): highly potent (low nM)
Compound: CC(C)(C)n1nc(-c2ccccc2)c2c(N)ncnc21 [2 (FIG. 14), 4-Amino-1-tert-butyl-3-phenylpyrazolo[3,4-d] pyrimidine, reference compound]
phosphotyrosine pattern of B cell stimulation [2]: significant reduction in tyrosine phosphorylation

Compound: O=P(O)(O)OP(=O)(O)OP(=O)(O)OC[C@H]1O[C@@H](n2cnc3c(NOC4CCCC4)ncnc32)[C@H](O)[C@@H]1O [ATP analog 9, N^6(cyclopentyloxy)ATP]
inhibition of GST-XD4(V323A, I338A) catalyzed RR-Src phosphorylation (GST-XD4(V323A, I338A)): almost as well as the wild-type kinase, GST-XD4, is inhibited by its natural substrate ATP

Compound: CC(C)(C)n1nc(Cc2ccc3ccccc3c2)c2c(N)ncnc21 [Compound 6j, 4-amino-1-(tert-butyl)-3-(2′-naphthylmethyl)pyrazolo[3,4-d]pyrimidine]
IC50 (I338G v-Src): 20 nM | inhibition of I338G v-Src (in words) (I338G v-Src): medium potency | IC50 (WT v-Src): > 300000 nM

Compound: CC(C)(C)n1nc(-c2cccc(OCc3ccccc3)c2)c2c(N)ncnc21 [Compound 6d, 4-amino-1-(tert-butyl)-3-(m-benzyloxyphenyl)pyrazolo[3,4-d]pyrimidine]
IC50 (I338G v-Src): 7 nM | inhibition of I338G v-Src (in words) (I338G v-Src): low nM concentrations | IC50 (WT v-Src): 26000 nM | IC50 (WT Fyn): 6000 nM

Compound: CC(C)(C)n1nc(-c2cccc(Oc3ccccc3)c2)c2c(N)ncnc21 [Compound 6c, 4-amino-1-(tert-butyl)-3-(m-phenoxyphenyl)pyrazolo[3,4-d]pyrimidine]
IC50 (I338G v-Src): 140 nM | IC50 (WT v-Src): 40000 nM | IC50 (WT Fyn): 800 nM

Compound: CONc1ncnc2c1ncn2[C@@H]1O[C@H](COP(=O)(O)OP(=O)(O)OP(=O)(O)O)[C@@H](O)[C@H]1O [ATP analog 1, N^6(methoxy)ATP]
ability to serve as cellular protein tyrosine kinase substrate (level of protein tyrosine phosphorylation) [1]: some ability to serve as cellular protein tyrosine kinase substrates

Compound: CC(C)ONc1ncnc2c1ncn2[C@@H]1O[C@H](COP(=O)(O)OP(=O)(O)OP(=O)(O)O)[C@@H](O)[C@H]1O [ATP analog 4, N^6(i-propoxy)ATP]
ability to serve as cellular protein tyrosine kinase substrate (level of protein tyrosine phosphorylation) [1]: little or no protein phosphorylation

Compound: OCC1OC(n2cnc3c(NOC4CCCC4)ncnc32)C(O)C1O (stereo not drawn) [1 (FIG. 14A), N-6 cyclopentyloxyadenosine]
in vitro inhibition of WT v-Src (WT v-Src): no detectable in vitro inhibition | in vitro inhibition of Fyn (WT Fyn): no detectable in vitro inhibition

Compound: CC(C)(C)n1nc(-c2ccccc2)c2c(NCc3ccccc3)ncnc21 [Compound 4e, 4-benzylamino-1-tert-butyl-3-phenylpyrazolo[3,4-d]pyrimidine]
inhibition of I338G v-Src (in words) (I338G v-Src): only poor to moderate inhibition | inhibition of WT Fyn (in words) (WT Fyn): sufficiently orthogonal to WT Fyn

IC50 (WT Fyn): 130 nM
Compound: CC(C)(C)n1nc(-c2ccc3ccccc3c2)c2c(N)ncnc21 [Compound 6b, 4-amino-1-(tert-butyl)-3-(2′-naphthyl)pyrazolo[3,4-d]pyrimidine]

Compound: O=P(O)(O)OP(=O)(O)OP(=O)(O)OC[C@H]1O[C@@H](n2cnc3c(NCc4ccccc4)ncnc32)[C@H](O)[C@@H]1O [ATP analog 5, N^6-(benzyl)ATP]
ability to serve as cellular protein tyrosine kinase substrate (level of protein tyrosine phosphorylation) [1]: little or no protein phosphorylation | inhibition of GST-XD4(V323A, I338A) catalyzed RR-Src phosphorylation (GST-XD4(V323A, I338A)): almost as well as the wild-type kinase, GST-XD4, is inhibited by its natural substrate ATP

Compound: CC(C)(C)c1ccc(-c2nn(C(C)(C)C)c3ncnc(N)c23)cc1 [Compound 6g, 4-amino-1-(tert-butyl)-3-(p-tert-butylphenyl)pyrazolo[3,4 d]pyrimidine]
IC50 (I338G v-Src): 99 nM | IC50 (WT v-Src): 65000 nM | IC50 (WT Fyn): 9200 nM

Compound: Cc1ccc(-c2nn(C(C)(C)C)c3ncnc(N)c23)cc1 [PP1, 4-amino-1-tert-butyl-3-(p-methylphenyl)pyrazolo[3,4-d]pyrimidine, reference compound]
inhibition of WT Fyn (in words) (WT Fyn): highly potent (low nM)

Compound: CC(C)(C)n1nc(-c2ccccc2)c2c(NCc3ccco3)ncnc21 [Compound 4d, 4-2′-furylmethylamino-1-tert-butyl-3-phenylpyrazolo[3,4-d]pyrimidine]
inhibition of I338G v-Src (in words) (I338G v-Src): only poor to moderate inhibition | inhibition of WT Fyn (in words) (WT Fyn): sufficiently orthogonal to WT Fyn

Compound: O=P(O)(O)OP(=O)(O)OP(=O)(O)OC[C@H]1O[C@@H](n2cnc3c(NC4CCCCC4)ncnc32)[C@H](O)[C@@H]1O [ATP analog 11, N^6-(cyclohexyl)ATP]
inhibition of GST-XD4(V323A, I338A) catalyzed RR-Src phosphorylation (GST-XD4(V323A, I338A)): almost as well as the wild-type kinase, GST-XD4, is inhibited by its natural substrate ATP

Compound: CC(C)(C)n1nc(-c2ccccc2)c2c(NCC3CCCC3)ncnc21 [Compound 4b, 4-cyclopentylmethylamino-1-tert-butyl-3-phenylpyrazolo[3,4-d]pyrimidine]
inhibition of I338G v-Src (in words) (I338G v-Src): only poor to moderate inhibition | inhibition of WT Fyn (in words) (WT Fyn): sufficiently orthogonal to WT Fyn

Compound: CC(C)(C)n1nc(-c2cccc(OCc3c(Cl)cccc3Cl)c2)c2c(N)ncnc21 [Compound 6e, 4-amino-1-(tert-butyl)-3-(m-(2′,6′-dichloro)benzyloxyphenyl) pyrazolo[3,4-d]pyrimidine]
IC50 (I338G v-Src): 130 nM | IC50 (WT Fyn): 84000 nM
